Source: paper PMC8715118, “Assessing potentiation of the (α4)3(β2)2 nicotinic acetylcholine receptor by the allosteric agonist CMPI” (The Journal of Biological Chemistry, 2021)
Read-outs that look alike come from different tables or passages of the source. One block for each compound: values may come before it.

Legend:
[1] = target: T1, (α4)3(β2)2 nAChR (Homo sapiens, UniProt P17787+P43681); test: Mechanistic (Monod-Wyman-Changeux two-state model) analysis of current responses, WT (α4)3(β2)2 nAChR; format: cell-based; settings: WT
T1 construct: expressed in transfected cells; host or cells: Xenopus laevis oocytes injected with cRNA, 8:1 α4:β2
Description: To gain mechanistic insight into receptor activation in the presence of CMPI, we analyzed the currents in the framework of a cyclic two-state (resting and active) allosteric activation model ([31], [32], [33]). In this model, channel opening is mediated by stabilization of the active state by an agonist that, by definition, has higher affinity to the active than resting state.
We commenced by converting the raw amplitudes of current responses to units of probability of being in the active state (PA units).
Further analysis of electrophysiological data was conducted in the framework of the two-state concerted transition model, adapted from the MWC cyclic model originally used to describe enzyme function ([31], [32], [33]). The raw peak amplitudes of current responses were converted to units of probability of being in the active state (PA).
The numbers of α4:β2 and α4:α4 binding sites (Nα4:β2 and Nα4:α4) were constrained to 2 and 1, respectively.
The concentration-response curve for TC-2559 was fitted to the following equation:(3) PA=1/1+L[1+[TC-2559]/KR,TC-2559,α4:β2/1+[TC-2559]/(KR,TC-2559,α4:β2cTC-2559,α4:β2)]^Nα4:β2
The concentration-response data were analyzed using Equation 3, with the value of L modified to reflect receptor activation by TC-2559, and the affinity and efficacy terms in the equation reflecting the values for CMPI. The number of binding sites for CMPI in Equation 3 was constrained to 1.
Curve fitting was done using Origin 2020 (OriginLab Corp). The results are reported as best-fit parameter ±SD of the fit. All data are included in the analysis.

[2] = target: T1, (α4)3(β2)2 nAChR; test: Two-electrode voltage-clamp whole-cell currents, Xenopus oocytes expressing WT (α4)3(β2)2 nAChR; format: cell-based; settings: for current response produced by a saturating concentration (100 μM), % of current elicited by 1 mM ACh: 100 μM agonist; for current response at subsaturating concentration, % of the current response to 1 mM ACh: subsaturating (1 μM) agonist
Procedure: Oocytes-positive female Xenopus laevis were purchased from NASCO, and all procedures were performed according to an animal use protocol approved by the Institutional Animals Care and Use Committee of The University of Texas Health Science Center at Tyler. Ovarian lobules were surgically harvested, treated with collagenase type 2, and Stage V and VI oocytes were visually selected and maintained at 18 °C in modified ND96-gentamicin buffer (96 mM NaCl, 2 mM KCl, 1.8 mM CaCl2, 1 mM MgCl2, 5 mM Hepes, and 50 μg/ml gentamicin, pH 7.6).
pSP64 Poly(A) plasmids with cDNA encoding for human α4 or β2 nAChR subunit were used to prepare cRNA transcripts suitable for oocyte expression. The plasmids were linearized with AseI (hα4) and PvuII (hβ2), then cRNA transcripts were prepared in vitro using mMESSAGE mMACHINE high yield-capped RNA transcription kits (Ambion, Thermo Fisher Scientific), purified on NucAway Spin column (Invitrogen, Thermo Fisher Scientific), and stored at −80 °C until used. Point mutations within the plasmid encoding the α4 nAChR subunit were introduced using QuikChange II Site-Directed Mutagenesis Kit (Agilent Technologies), as described previously ([28]). To generate amino acid substitutions (K64T, E66I, H116V, H116L, and H116A), two custom-designed complementary oligos containing the desired mutation were used (Integrated DNA Technologies). The forward primers were as the following with the codon for mutated amino acids are underlined and nucleotide(s) changes are bolded and italicized:
The oocytes were injected with 10 to 50 ng of a cRNA mix containing α4 (WT or mutant) and β2 RNAs at ratios of 8:1(α4:β) or 1:8 (α4:β2) to bias expression toward (α4)3(β2)2 or (α4)2(β2)3 nAChRs, respectively. The injection of oocytes with RNAs mixture containing four folds or higher α4 RNA than β2 RNA have been established to express receptor population that is made up of three α4 and two β2 subunits ([9], [12], [28], [43], [44], [45]).
24 to 72 h after cRNA injection, Xenopus oocytes were placed in a custom-made recording chamber that is connected to an eight-channel automated perfusion system (Warner Instruments) and perfused with recording buffer (100 mM NaCl, 2 mM KCl, 1 mM CaCl2, 0.8 mM MgCl2, 1 mM EGTA, and 10 mM Hepes, pH 7.5). Unless otherwise specified in figure legends, each recording run included several drug applications (10 s of an agonist with or without CMPI or NS9283) separated by 3 to 4 min buffer wash intervals. Between recording runs, the oocytes were washed with recording buffer for at last 5 min. The oocytes were voltage-clamped at −50 mV using Oocyte Clamp OC-725B (Warner Instruments). The currents were digitized using Digidata 1550A (Axon Instruments, Molecular Devices), and the peak currents were quantified using pCLAMP 10 (Axon Instruments), then normalized and analyzed using Excel 2010 (Microsoft) and SigmaPlot 11.0 (Systat Software). For NS9283 and CMPI potentiation of agonist-induced responses, the peak currents were normalized to current elicited by agonist alone applied within the same recording run. For the effect of coapplication of 1 μM NS9283 or CMPI on agonist concentration-response curve, the peak currents were normalized to current elicited by saturating concentration of agonist applied within the same recording run. […] I0 = 100 for NS9283 and CMPI potentiation of agonist-induced responses and I0 = 0 for agonist concentration-response experiments. The best-fit values for Imax and EC50 ± SD are presented.

[3] = tested on: nAChR; design: method as in PMID 1378342; settings: nonselective, allosteric antagonist; cited from earlier work

T1 sequence (P43681 27-627): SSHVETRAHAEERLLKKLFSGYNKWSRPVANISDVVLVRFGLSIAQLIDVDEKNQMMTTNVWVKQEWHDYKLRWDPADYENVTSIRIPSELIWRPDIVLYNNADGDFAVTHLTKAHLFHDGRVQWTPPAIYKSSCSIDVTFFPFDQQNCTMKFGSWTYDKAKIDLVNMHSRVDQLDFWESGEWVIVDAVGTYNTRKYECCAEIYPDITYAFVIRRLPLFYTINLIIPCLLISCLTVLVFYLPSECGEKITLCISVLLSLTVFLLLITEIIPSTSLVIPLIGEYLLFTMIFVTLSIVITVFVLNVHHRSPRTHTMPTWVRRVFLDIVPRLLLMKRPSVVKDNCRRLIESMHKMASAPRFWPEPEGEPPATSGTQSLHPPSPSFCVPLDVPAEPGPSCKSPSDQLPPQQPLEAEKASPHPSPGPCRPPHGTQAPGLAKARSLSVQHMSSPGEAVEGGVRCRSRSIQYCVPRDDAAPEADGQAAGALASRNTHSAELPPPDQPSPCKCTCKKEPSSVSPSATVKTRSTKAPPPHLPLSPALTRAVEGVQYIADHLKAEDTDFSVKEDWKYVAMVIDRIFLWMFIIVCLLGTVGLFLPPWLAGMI
T1 sequence (P17787 26-502): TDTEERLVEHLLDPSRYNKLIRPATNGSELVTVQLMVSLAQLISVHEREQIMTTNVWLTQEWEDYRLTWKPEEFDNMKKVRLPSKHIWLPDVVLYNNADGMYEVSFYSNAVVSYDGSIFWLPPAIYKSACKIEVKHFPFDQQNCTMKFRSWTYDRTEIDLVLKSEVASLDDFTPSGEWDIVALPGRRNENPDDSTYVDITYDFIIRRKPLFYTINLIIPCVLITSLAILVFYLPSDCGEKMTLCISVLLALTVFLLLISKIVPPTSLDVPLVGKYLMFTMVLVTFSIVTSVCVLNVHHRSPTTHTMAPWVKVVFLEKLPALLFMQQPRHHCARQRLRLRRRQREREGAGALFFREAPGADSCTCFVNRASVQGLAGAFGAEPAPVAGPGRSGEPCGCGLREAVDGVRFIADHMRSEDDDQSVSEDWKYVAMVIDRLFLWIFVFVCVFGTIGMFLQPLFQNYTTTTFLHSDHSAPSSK

SMILES: O=c1cccc2n1C[C@@H]1CNC[C@H]2C1 [cytisine]
Kd ([1]; KR, equilibrium dissociation constant in the resting receptor, α4:α4 site): 8.3 ± 0.5 µM
Kd ([1]; read-out: KR, equilibrium dissociation constant in the resting receptor, α4:β2 site): 0.63 ± 1.24 µM
c, ratio of equilibrium dissociation constants active/resting receptor ([1]; α4:α4 site): 0.155 ± 0.104
c, ratio of equilibrium dissociation constants active/resting receptor ([1]; α4:β2 site): 0.875 ± 0.029
current response produced by a saturating concentration (100 μM), % of current elicited by 1 mM ACh [2]: 10 ± 1%
I100 μM cytisine + 1 μM CMPI ([2]; % of 100 μM cytisine alone): 91 ± 5%
I100 μM cytisine + 1 μM NS9283 ([2]; % of 100 μM cytisine alone, data not shown): 113 ± 9%
EC50 ([2]; agonist alone, read-out: agonist EC50): 11 ± 6 µM
current response at subsaturating concentration, % of the current response to 1 mM ACh [2]: 2.3 ± 0.4%

SMILES: C=CC(C)(C)c1[nH]c2cc(Br)ccc2c1CCNC [dFBr, desformylflustrabromine]
peak response to 1 mM ACh, % of control ([2]; 1 mM ACh + 3 μM dFBr): 278 ± 36%

outward current, mean amplitude, % of the absolute response to 1 mM ACh ([2]; 100 μM mecamylamine, holding current): 2.1 ± 0.5%
SMILES: CNC1(C)C2CCC(C2)C1(C)C (centres unmarked) [mecamylamine]
IC50s [3]: submicromolar range

SMILES: CN1CCC[C@H]1c1cccnc1 [nicotine]
current response produced by a saturating concentration (100 μM), % of current elicited by 1 mM ACh [2]: 73 ± 3%
current response at subsaturating concentration, % of the current response to 1 mM ACh [2]: 2.9 ± 0.4%
